Test results: ChEMBL document CHEMBL3217429, “Structural studies of Enterococcus faecalis methionine aminopeptidase and design of microbe specific 2,2-bipyridine based inhibitors” (Medchemcomm, 2012)
Calls of active or inactive are those of the source. The rule behind the calls is not given here.

Columns and labels:
[1] = tested on: Enterococcus faecalis; test: (§1) Inhibition of Enterococcus faecalis recombinant type 1 methionine aminopeptidase expressed in Escherichia coli BL21 (DE3) using Met-pNA substrate
[2] = tested on: Enterococcus faecalis; test: Inhibition of Enterococcus faecalis recombinant type 1 methionine aminopeptidase expressed in Escherichia coli BL21 (DE3) using Met-pNA substrate by spectral study in presence of CoCl2
[3] = as §1
[4] = tested on: Enterococcus faecalis; test: Maximal inhibition of Enterococcus faecalis recombinant type 1 methionine aminopeptidase expressed in Escherichia coli BL21 (DE3) using Met-pNA substrate at 10 uM in presence of CoCl2
[5] = tested on: Enterococcus faecalis; test: Inhibition of Enterococcus faecalis recombinant type 1 methionine aminopeptidase expressed in Escherichia coli BL21 (DE3) using Met-pNA substrate by spectral study in presence of Mn2+

inhibition [1] | inhibition [2] | IC50 [3] | inhibition [4] | inhibition [5] | SMILES
inactive |  |  |  |  | O=C([O-])CC(O)(CC(=O)[O-])C(=O)[O-].[Na+].[Na+].[Na+]
 | Active | 6.67 µM | 75% | Active | c1ccc(-c2ccccn2)nc1 [DIPYRIDYL]
inactive |  |  |  |  | c1cc(-c2ccncc2)ccn1
